The results in this text go back to article PMC10578352, “Identification of a Protein Arginine Methyltransferase 7 (PRMT7)/Protein Arginine Methyltransferase 9 (PRMT9) Inhibitor” (Journal of Medicinal Chemistry, 2023).

Test [1] has as its system CePRMT9. The test is described as follows: Radioisotope-based assay (SDS-PAGE, fluorography, densitometry), CePRMT9. It counts as biochemical, Caenorhabditis elegans. The conditions noted are these: substrate GST-CeSFTB-2 (99–248), 25 °C. The method, then:
(§1) Based on these outcomes, we resolved to explore the effect on the capability to inhibit PRMT9 enzymatic activity of further reduction of the distance between the pharmacophoric moieties. […] After the experiment was repeated with 100, 250, and 500 μM concentrations of each inhibitor, half inhibition was observed only at a concentration of roughly 250 μM (Figure 4d).
(§2) […]. The experiments were performed as reported in the Experimental procedures section. GST-HsPRMT9 (a) and GST-HsPRMT7 (b) were incubated with human GST-SF3B2 (401–550) peptide or recombinant HsH2B, respectively (1 μg of enzyme, 5 μg of substrate), 0.14 μM [^3H]SAM, and the indicated concentrations of tested compounds at the corresponding optimal reaction temperature (37 °C for HsPRMT9, 15 °C for HsPRMT7). C. elegans GST-tagged enzymes PRMT9 (c) and PRMT7 (d) were incubated with GST-CeSFTB-2 (99–248) fragment or recombinant HsH2B, respectively (1 μg of enzyme, 5 μg of substrate), 0.14 μM [^3H]SAM, and the indicated concentrations of tested compounds at the corresponding optimal reaction temperature (25 °C for CePRMT9, 15 °C for CePRMT7). After SDS-PAGE, the gels were treated as previously described[48] and densitometry analysis was done using ImageJ software, and data was plotted as normalized activity to the no inhibitor controls.
(§3) Human PRMT9, C. elegans PRMT9, human PRMT7, and C. elegans PRMT7 plasmids were sequenced, expressed in E. coli as GST-fusion proteins, and purified as previously described.[48] Substrates were also sequenced and purified as described [human GST-SF3B2 (401–550);[13]C. elegans SFTB-2;[48] human histone H2B (New England Biolabs, M2505S)]. Xenopus laevis histone H2B was expressed in E. coli and purified similarly to what was previously reported by Luger et al.[72]
(§4) Reactions consisting of approximately 1 μg of enzyme (human or C. elegans GST-tagged enzymes PRMT9 and PRMT7), reacted with approximately 5 μg of substrate [for human PRMT9, human GST-SF3B2 401–550 fragment; C. elegans PRMT9 with C. elegans GST-SFTB-2 (99–248) fragment, or recombinant human histone H2B from New England Biolabs (M2505S)], were incubated for the indicated time in reaction buffer {50 mM potassium HEPES buffer, 10 mM NaCl, 1 mM dithiothreitol (DTT), pH 8.0 with 0.7 μM S-adenosyl-L-[methyl-^3H]methionine (^3H-AdoMet, PerkinElmer Life Sciences, 82.7 Ci/mmol, 0.55 mCi/mL in 10 mM H2SO4/EtOH [9:1 (v/v)])} in a final reaction volume of 60 μL. Each reaction was incubated at the corresponding optimal reaction temperature (37 °C for human PRMT9, 25 °C for C. elegans PRMT9, and 15 °C for C. elegans and human PRMT7 enzymes. MTA was dissolved in water, and a wavelength scan was taken to determine the final concentration using the extinction coefficient. The final concentrations used are indicated in the figure legends. […]. EML734, EML736, and EML709 were also dissolved in DMSO, and further dilutions were made in DMSO for the working stocks. For controls, no inhibitor reactions were created by the addition of the respective solvent (water for MTA and DMSO for EPZ015666 and EML inhibitors).
(§5) After the reaction incubations with the various concentrations of inhibitors, the reactions were quenched by adding 0.2 volume of 5× SDS sample loading buffer, and subsequently, the reactions were run on a 12.6% polyacrylamide Tris gel. To collect the radioactive signal, the gels were then treated in the same way as previously described.[48]
(§6) After various exposures were collected to ensure linear detection, densitometry analysis was done using ImageJ software, and data were plotted as normalized activity to the no inhibitor controls.

For test [2], the target named is T1, CePRMT7 (Caenorhabditis elegans, UniProt Q9XW42).
T1 construct: made in house; host or cells: E. coli
T1 sequence (Q9XW42 whole entry): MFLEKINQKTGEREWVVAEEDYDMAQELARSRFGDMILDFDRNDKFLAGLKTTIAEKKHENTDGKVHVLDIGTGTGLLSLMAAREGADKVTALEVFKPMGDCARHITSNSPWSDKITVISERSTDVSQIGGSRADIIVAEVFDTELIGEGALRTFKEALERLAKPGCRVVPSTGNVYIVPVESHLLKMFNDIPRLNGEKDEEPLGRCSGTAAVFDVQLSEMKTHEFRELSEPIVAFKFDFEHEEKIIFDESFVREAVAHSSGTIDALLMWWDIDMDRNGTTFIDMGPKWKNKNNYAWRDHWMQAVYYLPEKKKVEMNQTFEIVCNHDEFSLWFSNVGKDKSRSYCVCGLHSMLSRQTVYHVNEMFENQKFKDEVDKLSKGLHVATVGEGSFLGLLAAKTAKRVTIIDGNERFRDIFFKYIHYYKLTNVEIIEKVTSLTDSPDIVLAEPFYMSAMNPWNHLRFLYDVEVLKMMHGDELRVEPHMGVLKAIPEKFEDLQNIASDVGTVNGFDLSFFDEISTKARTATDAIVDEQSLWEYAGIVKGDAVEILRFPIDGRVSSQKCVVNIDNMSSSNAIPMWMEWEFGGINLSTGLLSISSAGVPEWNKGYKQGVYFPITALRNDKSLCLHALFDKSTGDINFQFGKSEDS
Nature of the test: Radioisotope-based assay (SDS-PAGE, fluorography, densitometry), CePRMT7. Type of test: biochemical. The conditions noted are these: 100 uM; substrate HsH2B, 15 °C; read-out: % CePRMT7 residual activity. The method, then: as §1, §2, §3, §4, §5, §6

Test [3] addresses T2, GST-HsPRMT9 (Homo sapiens, UniProt Q6P2P2).
T2 construct: made in house; host or cells: E. coli
T2 sequence (Q6P2P2 1-845): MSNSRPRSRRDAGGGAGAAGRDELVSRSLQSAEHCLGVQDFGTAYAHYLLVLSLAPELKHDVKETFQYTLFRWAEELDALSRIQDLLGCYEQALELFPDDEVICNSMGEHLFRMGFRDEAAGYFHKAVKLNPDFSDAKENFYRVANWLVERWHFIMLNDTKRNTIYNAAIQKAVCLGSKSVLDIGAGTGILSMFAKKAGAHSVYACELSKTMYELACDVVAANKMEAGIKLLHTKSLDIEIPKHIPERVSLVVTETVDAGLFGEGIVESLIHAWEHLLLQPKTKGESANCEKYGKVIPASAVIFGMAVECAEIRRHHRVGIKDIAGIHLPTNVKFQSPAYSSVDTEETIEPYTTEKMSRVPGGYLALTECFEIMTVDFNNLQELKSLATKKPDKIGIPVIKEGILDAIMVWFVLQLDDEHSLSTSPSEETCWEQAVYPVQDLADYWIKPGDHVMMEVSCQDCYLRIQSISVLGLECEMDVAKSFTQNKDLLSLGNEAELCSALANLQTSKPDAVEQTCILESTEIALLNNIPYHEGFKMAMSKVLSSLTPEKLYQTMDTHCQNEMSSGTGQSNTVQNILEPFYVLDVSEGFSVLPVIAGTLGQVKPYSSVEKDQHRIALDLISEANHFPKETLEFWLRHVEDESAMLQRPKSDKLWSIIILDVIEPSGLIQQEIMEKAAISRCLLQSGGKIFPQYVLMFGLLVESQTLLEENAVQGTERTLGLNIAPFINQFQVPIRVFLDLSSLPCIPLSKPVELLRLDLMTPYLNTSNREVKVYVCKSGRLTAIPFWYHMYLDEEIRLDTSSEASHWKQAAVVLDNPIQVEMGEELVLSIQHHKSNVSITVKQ
The test is described as follows: Radioisotope-based assay (SDS-PAGE, fluorography, densitometry), HsPRMT9. It counts as biochemical. The method, then:
as §1, §2, §3, §4, §5, §6

Test [4] concerns the target T3, GST-HsPRMT7 (Homo sapiens, UniProt Q9NVM4).
T3 construct: made in house; host or cells: E. coli
T3 sequence (Q9NVM4 1-692): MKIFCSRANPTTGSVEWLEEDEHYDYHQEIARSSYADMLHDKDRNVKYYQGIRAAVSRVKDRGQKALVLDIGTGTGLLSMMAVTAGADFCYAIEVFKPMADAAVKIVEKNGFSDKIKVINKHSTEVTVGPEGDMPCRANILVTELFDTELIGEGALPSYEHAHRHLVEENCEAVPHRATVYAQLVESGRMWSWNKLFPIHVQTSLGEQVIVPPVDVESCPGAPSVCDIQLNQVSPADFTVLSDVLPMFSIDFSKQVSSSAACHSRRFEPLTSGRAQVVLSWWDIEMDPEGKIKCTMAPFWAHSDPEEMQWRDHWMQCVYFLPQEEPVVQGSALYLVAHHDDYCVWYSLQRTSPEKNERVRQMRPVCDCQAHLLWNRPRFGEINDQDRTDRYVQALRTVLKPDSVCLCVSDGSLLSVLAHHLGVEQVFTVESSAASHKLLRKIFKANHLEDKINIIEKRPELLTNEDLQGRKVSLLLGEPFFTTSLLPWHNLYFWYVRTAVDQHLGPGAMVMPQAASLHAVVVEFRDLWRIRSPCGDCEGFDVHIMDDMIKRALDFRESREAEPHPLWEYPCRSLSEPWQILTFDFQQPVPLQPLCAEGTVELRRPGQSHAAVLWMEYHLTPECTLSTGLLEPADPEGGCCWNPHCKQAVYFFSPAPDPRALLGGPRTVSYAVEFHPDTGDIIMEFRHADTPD
Nature of the test: Radioisotope-based assay (SDS-PAGE, fluorography, densitometry), HsPRMT7. It counts as biochemical. The conditions noted are these: substrate HsH2B, 15 °C, read-out: % HsPRMT7 residual activity. The method, then: as §1, §2, §3, §4
After the reaction incubations with the various concentrations of inhibitors, the reactions were quenched by adding 0.2 volume of 5× SDS sample loading buffer, and subsequently, the reactions were run on a 12.6% polyacrylamide Tris gel. To collect the radioactive signal, the gels were then treated in the same way as previously described.[48] […]

The target in test [5] is T4, ASH1L/KMT2H (Homo sapiens, UniProt Q9NR48).
T4 construct: the human recombinant ASH1L (residues 2046–2330, with an N-terminal His-tag); His (N); purchased Reaction Biology Corporation
The test is described as follows: HotSpot KMT activity assay, ASH1L. It counts as biochemical. The source says:
; MW = 35.4 kDa; Genbank Accession # NM_018489), or the human recombinant EZH2-containing five-member polycomb repressive complex 2 (including EZH2 residues 2–746, AEBP2 2–517, EED 2–441, RbAp48 2–425, SUZ12 2–739; all full-length; with N-terminal Flag-tag on EED and N-terminal His-tag on all others; MW = 333.8 kDa; Genbank Accession # NM_001203247, NM_001114176, NM_003797, NM_005610, NM_015355), or the human recombinant G9a (residues 913–1193, C-terminus; with an N-terminal His-tag; MW = 34.6 kDa; Genbank Accession # NM_006709.3), or the human recombinant MLL1 complex (including MLL1 residues 3745–3969, C-terminus, WDR5 22–334, C-terminus, RbBP5 1–538, C-terminus, ASH2L 2–534, C-terminus, DPY-30 1–99, C-terminus; N-terminal His-tag on all subunits; MW = 212.0 kDa; Genbank Accession # NM_005933, NM_017588, NM_005057, NM_001105214, NM_0325742), or the human recombinant SET7/9 (residues 2–366, C-terminus; with a N-terminal GST-tag and a C-terminal His-tag; MW = 68.5 kDa; Genbank Accession # NM_030648), or the human recombinant SMYD3 (residues 2–428, C-terminus; C-terminal His-tag; MW = 50.1 kDa; Genbank Accession # NM_001167740), or the human recombinant SUV39H2 (residues 46–410, C-terminus; N-terminal fusion protein with a C-terminal His-tag; MW = 98.8 kDa; GenBank Accession No. NM_001193424), or the human recombinant DOT1L (residues 1–416; N-terminal GST-tag; MW = 80.0 kDa; Genbank Accession # NM_032482) was added to a solution of the proper substrate (oligo nucleosomes for ASH1L, MLL1 complex, and DOT1L, final concentration 0.05 mg/mL; core histone for EZH2 complex and SET7/9, final concentration 0.05 mg/mL; histone H3 for SUV39H2, final concentration 5 μM; histone H3 1–21 for G9a, final concentration 2.5 μM) in freshly prepared reaction buffer (50 mM Tris-HCl (pH 8.5), 5 mM MgCl2, 50 mM NaCl, 1 mM DTT, 1 mM PMSF, 1% DMSO) and gently mixed. […] After incubation for 60 min at 30 °C, the reaction mixture was delivered to filter paper for detection (as assessed by scintillation). […] Values obtained for each compound are mean ± SD determined for two separate experiments.

The mark [6] stands for this setting: substrate GST-SF3B2 (401–550), 37 °C, read-out: % HsPRMT9 residual activity.

Each structure is given as a SMILES string. pIC50: −log10 of the molar value.

On to `O=C(NC[C@H](O)CN1CCc2ccccc2C1)c1cc(NC2COC2)ncn1` [EPZ015666, reference compound], for which the “% CePRMT9 residual activity” value was 139.23% in test [1] (100 uM), 132.20% in test [1] (250 uM) and 105.26% in test [1] (500 uM). Besides, the remaining activity at 100 µM in test [2] was 131%; in test [3] (setting [6]), 99.8%; in test [4], 120%. The remaining activity at 250 µM in test [3] (250 uM, substrate GST-SF3B2 (401–550), 37 °C, read-out: % HsPRMT9 residual activity) came out at 105%. Also, the remaining activity at 500 µM in test [3] (500 uM, substrate GST-SF3B2 (401–550), 37 °C, read-out: % HsPRMT9 residual activity) was 98%. In addition, the “inhibition of HsPRMT9 (in words)” value in test [3] (up to 500 μM) is “inactive”.

As to `CSC[C@H]1O[C@@H](n2cnc3c(N)ncnc32)[C@H](O)[C@@H]1O` [MTA, 5′-Deoxy-5′-(methylthio)adenosine, reference compound], the “% CePRMT9 residual activity” value in test [1] (100 uM) came out at 23.57%. The remaining activity at 100 µM in test [2] is 130%; in test [3] (setting [6]), 26%; in test [4], 46.8%. In addition, the “inhibition of HsPRMT9 (in words)” value in test [3] (100 μM) is “good inhibition only at 100 μM”.

`CN1C(=O)[C@@]23C[C@]4([C@]56C[C@@]78SS[C@@](CO)(C(=O)N7[C@H]5Nc5ccccc56)N(C)C8=O)c5ccccc5N[C@@H]4N2C(=O)[C@]1(CO)SS3` [chaetocin, reference compound]: in test [5], the pIC50 is 7.60.

Broadly, the pIC50 is the negative decadic logarithm of the IC50, by convention in mol/L.
